Measured values published in patent US9211310B2, “Use of a Chinese medicine composition in preparing medicaments for treating secondary prevention of myocardial infarction” (TASLY PHARMACEUTICAL GROUP CO., LTD, priority 2010, dated 2015).

Tested on: patients after acute myocardial infarction
Assay: Life quality, Seattle Angina Questionnaire (SAQ), same clinical trial
Assay type: in vivo, human
Details: FAS
Description: 3508 patients who were in accordance with the diagnostic standards of AMI for 28 days to 2 years and differentiated as Qi deficiency and blood stagnation syndrome by TCM were studied. 0.5 g Chinese medicine composition prepared by the method of EXAMPLE 1 (Coded as QSYQ) was administrated half an hour after meal, 3 times per day.
There were 19 questions in the Seattle angina questionnaire (SAQ), including 5 parts: physical limitation (PL), anginal stability (AS), anginal frequency (AF), treatment satisfaction (TS) and disease perception (DP). After being given necessary explanation by doctors, the questions were answered independently by patients.
They included the overall survival time, angina pectoris score, TCM symptom score and life quality score, where angina pectoris score, TCM symptom score and life quality score were evaluated at randomization, in 1st, 3rd, 6th, 9th, 12th month after treatment and 18th month after follow-up.
All evaluation results of SAQ were described during the period of observation, and Wilcoxon rank sum test was used for inter-group comparison.
The evaluation results in the SAQ were depicted in different observations, and inter-group comparison was tested by Wilcoxon Rank-sum test.

## CC(=O)Oc1ccccc1C(=O)O [Control group, aspirine]
1 month after treatment
  SAQ Question 1-2 Moderately limited, number of patients: 14
  SAQ Question 1-2 Moderately limited, percent of patients: (0.80%)
  SAQ Question 1-2 Not limited, number of patients: 1575
  SAQ Question 1-2 Not limited, percent of patients: (90.36%)
  SAQ Question 1-2 Other reasons, number of patients: 6
  SAQ Question 1-2 Other reasons, percent of patients: (0.34%)
  SAQ Question 1-2 Severely limited, number of patients: 0
  SAQ Question 1-2 Severely limited, percent of patients: (0.00%)
  SAQ Question 1-2 Slightly limited, percent of patients: (6.66%)
  SAQ Question 1-6: Mildly limited, patients (%): (18.54%)
  SAQ Question 1-6: Moderately limited, patients (%): (14.85%)
  SAQ Question 1-6: Not limited, patients (%): (29.59%)
  SAQ Question 1-6: Other reasons, patients (%): (0.81%)
  SAQ Question 1-6: Severely limited, patients (%): (5.18%)
  SAQ Question 1-6: Slightly limited, patients (%): (31.03%)
  SAQ Question 1-7: Mildly limited, patients (%): (23.73%)
  SAQ Question 1-7: Moderately limited, patients (%): (17.45%)
  SAQ Question 1-7: Not limited, patients (%): (12.86%)
  SAQ Question 1-7: Other reasons, patients (%): (2.85%)
  SAQ Question 1-7: Severely limited, patients (%): (17.68%)
  SAQ Question 1-7: Slightly limited, patients (%): (25.42%)
  SAQ Question 1-8: Mildly limited, patients (%): (24.13%)
  SAQ Question 1-8: Moderately limited, patients (%): (20.52%)
  SAQ Question 1-8: Not limited, patients (%): (9.01%)
  SAQ Question 1-8: Other reasons, patients (%): (2.79%)
  SAQ Question 1-8: Severely limited, patients (%): (22.27%)
  SAQ Question 1-8: Slightly limited, patients (%): (21.28%)
3 months after treatment
  8th question: Dissatisfied, patients (%): (0.17%)
  8th question: Highly satisfied, patients (%): (19.09%)
  8th question: Mostly dissatisfied, patients (%): (3.10%)
  8th question: Mostly satisfied, patients (%): (52.81%)
  8th question: Partly satisfied, patients (%): (24.83%)
  9th question: Few, patients (%): (31.88%)
  9th question: Mild, patients (%): (33.54%)
  9th question: Moderate, patients (%): (15.60%)
  9th question: Severe, patients (%): (1.49%)
  9th question: Uneffective, patients (%): (17.49%)
  10th question: Dissatisfied, patients (%): (21.33%)
  10th question: Highly satisfied, patients (%): (4.70%)
  10th question: Mostly dissatisfied, patients (%): (22.19%)
  10th question: Mostly satisfied, patients (%): (24.20%)
  10th question: Partly satisfied, patients (%): (27.58%)
  11th question: Continuously worried, patients (%): (5.39%)
  11th question: No worried, patients (%): (4.87%)
  11th question: Occasionally worried, patients (%): (40.94%)
  11th question: Often worried, patients (%): (18.29%)
  11th question: Seldom worried, patients (%): (30.50%)
  SAQ 4th question, 1-2 times per week: % of patients: (16.69%)
  SAQ 4th question, 1-2 times per week: number of patients: 291
  SAQ 4th question, 1-3 times per day: % of patients: (5.56%)
  SAQ 4th question, 1-3 times per day: number of patients: 97
  SAQ 4th question, <1 time per week: % of patients: (11.47%)
  SAQ 4th question, <1 time per week: number of patients: 200
  SAQ 4th question, Not used: % of patients: (55.50%)
  SAQ 4th question, Not used: number of patients: 968
  SAQ 4th question, ≧3 times per week: % of patients: (10.72%)
  SAQ 4th question, ≧3 times per week: number of patients: 187
  SAQ 4th question, ≧4 times per day: % of patients: (0.06%)
  SAQ 4th question, ≧4 times per day: number of patients: 1
  SAQ 5th question, Few: % of patients: (24.60%)
  SAQ 5th question, Few: number of patients: 429
  SAQ 5th question, Mild: % of patients: (26.26%)
  SAQ 5th question, Mild: number of patients: 458
  SAQ 5th question, Moderate: % of patients: (15.65%)
  SAQ 5th question, Moderate: number of patients: 273
  SAQ 5th question, None: % of patients: (27.41%)
  SAQ 5th question, None: number of patients: 478
  SAQ 5th question, Not medicated by doctors: % of patients: (4.36%)
  SAQ 5th question, Not medicated by doctors: number of patients: 76
  SAQ 5th question, Severe: % of patients: (1.72%)
  SAQ 5th question, Severe: number of patients: 30
  SAQ 6th question, Dissatisfied: % of patients: (0.23%)
  SAQ 6th question, Dissatisfied: number of patients: 4
  SAQ 6th question, Highly satisfied: % of patients: (19.61%)
  SAQ 6th question, Highly satisfied: number of patients: 342
  SAQ 6th question, Mostly dissatisfied: % of patients: (2.64%)
  SAQ 6th question, Mostly dissatisfied: number of patients: 46
  SAQ 6th question, Mostly satisfied: % of patients: (51.83%)
  SAQ 6th question, Mostly satisfied: number of patients: 904
  SAQ 6th question, Partly satisfied: % of patients: (25.69%)
  SAQ 6th question, Partly satisfied: number of patients: 448
  SAQ 7th question, Dissatisfied: % of patients: (0.11%)
  SAQ 7th question, Dissatisfied: number of patients: 2
  SAQ 7th question, Highly satisfied: % of patients: (22.68%)
  SAQ 7th question, Highly satisfied: number of patients: 395
  SAQ 7th question, Mostly dissatisfied: % of patients: (1.95%)
  SAQ 7th question, Mostly dissatisfied: number of patients: 34
  SAQ 7th question, Mostly satisfied: % of patients: (54.08%)
  SAQ 7th question, Mostly satisfied: number of patients: 942
  SAQ 7th question, Partly satisfied: % of patients: (21.18%)
  SAQ 7th question, Partly satisfied: number of patients: 369
  SAQ Question 1-1 Mildly limited, number of patients: 26
  SAQ Question 1-1 Mildly limited, percent of patients: (1.49%)
  SAQ Question 1-1 Moderately limited, number of patients: 7
  SAQ Question 1-1 Moderately limited, percent of patients: (0.40%)
  SAQ Question 1-1 Not limited, number of patients: 1634
  SAQ Question 1-1 Not limited, percent of patients: (93.69%)
  SAQ Question 1-1 Other reasons, number of patients: 4
  SAQ Question 1-1 Other reasons, percent of patients: (0.23%)
  SAQ Question 1-1 Severely limited, number of patients: 1
  SAQ Question 1-1 Severely limited, percent of patients: (0.06%)
  SAQ Question 1-1 Slightly limited, number of patients: 72
  SAQ Question 1-1 Slightly limited, percent of patients: (4.13%)
  SAQ Question 1-2 Mildly limited, number of patients: 23
  SAQ Question 1-2 Mildly limited, percent of patients: (1.32%)
  SAQ Question 1-2 Moderately limited, number of patients: 10
  SAQ Question 1-2 Moderately limited, percent of patients: (0.57%)
  SAQ Question 1-2 Not limited, number of patients: 1603
  SAQ Question 1-2 Not limited, percent of patients: (91.92%)
  SAQ Question 1-2 Other reasons, number of patients: 7
  SAQ Question 1-2 Other reasons, percent of patients: (0.40%)
  SAQ Question 1-2 Severely limited, number of patients: 0
  SAQ Question 1-2 Severely limited, percent of patients: (0.00%)
  SAQ Question 1-2 Slightly limited, number of patients: 101
  SAQ Question 1-2 Slightly limited, percent of patients: (5.79%)
  SAQ Question 1-6: Mildly limited, patients (%): (18.23%)
  SAQ Question 1-6: Moderately limited, patients (%): (13.05%)
  SAQ Question 1-6: Not limited, patients (%): (31.45%)
  SAQ Question 1-6: Other reasons, patients (%): (0.92%)
  SAQ Question 1-6: Severely limited, patients (%): (4.14%)
  SAQ Question 1-6: Slightly limited, patients (%): (32.20%)
  SAQ Question 1-7: Mildly limited, patients (%): (23.77%)
  SAQ Question 1-7: Moserately limited, patients (%): (15.07%)
  SAQ Question 1-7: Not limited, patients (%): (13.91%)
  SAQ Question 1-7: Other reasons, patients (%): (3.01%)
  SAQ Question 1-7: Severely limited, patients (%): (15.88%)
  SAQ Question 1-7: Slightly limited, patients (%): (28.35%)
  SAQ Question 1-8: Mildly limited, patients (%): (25.55%)
  SAQ Question 1-8: Moderately limited, patients (%): (17.89%)
  SAQ Question 1-8: Not limited, patients (%): (10.69%)
  SAQ Question 1-8: Other reasons, patients (%): (3.02%)
  SAQ Question 1-8: Severely limieted, patients (%): (21.02%)
  SAQ Question 1-8: Slightly limited, patients (%): (21.84%)
6 months after treatment
  8th question: Dissatisfied, patients (%): (0.17%)
  8th question: Highly satisfied, patients (%): (20.30%)
  8th question: Mostly satisfied, patients (%): (56.59%)
  8th question: Partly satisfied, patients (%): (20.70%)
  9th question: Few, patients (%): (34.75%)
  9th question: Mild, patients (%): (34.63%)
  9th question: Severe, patients (%): (0.86%)
  9th question: Uneffective, patients (%): (18.12%)
  10th question: Dissatisfied, patients (%): (20.87%)
  10th question: Highly satisfied, patients (%): (4.64%)
  10th question: Mostly dissatisfied, patients (%): (21.56%)
  10th question: Mostly satisfied, patients (%): (26.61%)
  10th question: Partly satisfied, patients (%): (26.32%)
  11th question: Continuously worried, patients (%): (4.42%)
  11th question: No worried, patients (%): (4.93%)
  11th question: Occasionally worried, patients (%): (41.69%)
  11th question: Often worried, patients (%): (14.85%)
  11th question: Seldom worried, patients (%): (34.12%)
  SAQ 4th question, 1-2 times per week: % of patients: (17.55%)
  SAQ 4th question, 1-2 times per week: number of patients: 306
  SAQ 4th question, 1-3 times per day: % of patients: (4.70%)
